Test results: ChEMBL document CHEMBL1201862, “PubChem BioAssay data set” (2004)
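Briefly, cells in 96-well plates were exposed to five compound concentrations for 48 h, and endpoints were estimated by linear interpolation. GI50 = concentration required for 50% inhibition of growth.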 Calls of active or inactive are those of the source. No stated cut-off is given here; in the data, active = GI50 up to about 1.1 µM and inactive = higher.

What was measured:
Assay in all cases: inhibition of tumour cell growth, NCI panel, 48 h
M14 = test system: M14
NCI/ADR-RES = test system: NCI/ADR-RES
HCT-116 = test system: HCT-116
DMS-114 = test system: DMS-114
OVCAR-8 = test system: OVCAR-8
RXF 393 = test system: RXF 393
RPMI-8226 = test system: RPMI-8226
CCRF-CEM = test system: CCRF-CEM
SK-MEL-5 = test system: SK-MEL-5
LXFL 529 = test system: LXFL 529
SK-MEL-2 = test system: SK-MEL-2
SF-539 = test system: SF-539
MCF7 = test system: MCF7
DMS-273 = test system: DMS-273
K562 = test system: K562
Hs-578T = test system: Hs-578T
UACC-62 = test system: UACC-62
UACC-257 = test system: UACC-257
HOP-62 = test system: HOP-62
SN12C = test system: SN12C
A498 = test system: A498
BT-549 = test system: BT-549
ACHN = test system: ACHN
M19-MEL = test system: M19-MEL
SW-620 = test system: SW-620
NCI-H23 = test system: NCI-H23
786-0 = test system: 786-0
U-251 = test system: U-251
OVCAR-5 = test system: OVCAR-5
OVCAR-3 = test system: OVCAR-3
T47D = test system: T47D
SNB-75 = test system: SNB-75
MOLT-4 = test system: MOLT-4
IGROV-1 = test system: IGROV-1
PC-3 = test system: PC-3
DU-145 = test system: DU-145
EKVX = test system: EKVX
SNB-19 = test system: SNB-19
HT-29 = test system: HT-29
TK-10 = test system: TK-10
KM12 = test system: KM12
SNB-78 = test system: SNB-78
NCI-H460 = test system: NCI-H460
Malme-3M = test system: Malme-3M
HOP-92 = test system: HOP-92
DLD-1 = test system: DLD-1
SF-295 = test system: SF-295
COLO 205 = test system: COLO 205
NCI-H226 = test system: NCI-H226
MDA-N = test system: MDA-N
UO-31 = test system: UO-31
MDA-MB-231 = test system: MDA-MB-231
LOX IMVI = test system: LOX IMVI
RXF 631 = test system: RXF 631
A549 = test system: A549
CAKI-1 = test system: CAKI-1
SF-268 = test system: SF-268
NCI-H522 = test system: NCI-H522
OVCAR-4 = test system: OVCAR-4
MDA-MB-435 = test system: MDA-MB-435
SR = test system: SR
HL-60 = test system: HL-60
HCT-15 = test system: HCT-15
SK-OV-3 = test system: SK-OV-3
SK-MEL-28 = test system: SK-MEL-28
HCC 2998 = test system: HCC 2998
XF498 = test system: XF498

Cn1c2ccccc2c2cc(-c3ccccc3)c3c(c21)C(=O)C=CC3=O
GI50 (M14): 21.1 µM (inactive)
GI50 (NCI/ADR-RES): 41.3 µM (inactive)
GI50 (HCT-116): 20.2 µM (inactive)
GI50 (DMS-114): 9.38 µM (inactive)
GI50 (OVCAR-8): 30.3 µM (inactive)
GI50 (RXF 393): 15.8 µM (inactive)
GI50 (RPMI-8226): 2.45 µM (inactive)
GI50 (CCRF-CEM): 1.59 µM (inactive)
GI50 (SK-MEL-5): 28.3 µM (inactive)
GI50 (LXFL 529): 6.68 µM (inactive)
GI50 (SK-MEL-2): 22.4 µM (inactive)
GI50 (SF-539): 27.3 µM (inactive)
GI50 (MCF7): 12.3 µM (inactive)
GI50 (DMS-273): 19.7 µM (inactive)
GI50 (K562): 5.31 µM (inactive)
GI50 (Hs-578T): 28.9 µM (inactive)
GI50 (UACC-62): 19.3 µM (inactive)
GI50 (UACC-257): 21.6 µM (inactive)
GI50 (HOP-62): 28.8 µM (inactive)
GI50 (SN12C): 21.7 µM (inactive)
GI50 (A498): 22.5 µM (inactive)
GI50 (BT-549): 12.4 µM (inactive)
GI50 (ACHN): 19.8 µM (inactive)
GI50 (M19-MEL): 20.1 µM (inactive)
GI50 (SW-620): 9.48 µM (inactive)
GI50 (NCI-H23): 17.2 µM (inactive)
GI50 (786-0): 8.15 µM (inactive)
GI50 (U-251): 18.8 µM (inactive)
GI50 (OVCAR-5): 19 µM (inactive)
GI50 (OVCAR-3): 16.4 µM (inactive)
GI50 (T47D): 9.55 µM (inactive)
GI50 (SNB-75): 27.6 µM (inactive)
GI50 (MOLT-4): 3.59 µM (inactive)
GI50 (IGROV-1): 22.8 µM (inactive)
GI50 (PC-3): 18.4 µM (inactive)
GI50 (DU-145): 82.8 µM (inactive)
GI50 (EKVX): 39.7 µM (inactive)
GI50 (SNB-19): 36.6 µM (inactive)
GI50 (HT-29): 17.5 µM (inactive)
GI50 (TK-10): 17.1 µM (inactive)
GI50 (KM12): 20 µM (inactive)
GI50 (SNB-78): > 42.1 µM (inactive)
GI50 (NCI-H460): 20.6 µM (inactive)
GI50 (Malme-3M): 19.5 µM (inactive)
GI50 (HOP-92): 14.5 µM (inactive)
GI50 (DLD-1): 13.6 µM (inactive)
GI50 (SF-295): 24 µM (inactive)
GI50 (COLO 205): 17.5 µM (inactive)
GI50 (NCI-H226): 15.2 µM (inactive)
GI50 (MDA-N): 19.4 µM (inactive)
GI50 (UO-31): 19.8 µM (inactive)
GI50 (MDA-MB-231): 23.2 µM (inactive)
GI50 (LOX IMVI): 18.6 µM (inactive)
GI50 (RXF 631): 30.3 µM (inactive)
GI50 (A549): 60.1 µM (inactive)
GI50 (CAKI-1): 18.3 µM (inactive)
GI50 (SF-268): 28.4 µM (inactive)
GI50 (NCI-H522): 17.5 µM (inactive)
GI50 (OVCAR-4): 18.8 µM (inactive)
GI50 (MDA-MB-435): 15.1 µM (inactive)
GI50 (SR): 3.31 µM (inactive)
GI50 (HL-60): 4.52 µM (inactive)
GI50 (HCT-15): 15.2 µM
GI50 (SK-OV-3): > 88.1 µM (inactive)
GI50 (SK-MEL-28): 20.4 µM (inactive)
GI50 (HCC 2998): 34.1 µM (inactive)
GI50 (XF498): 17.8 µM (inactive)
